In ChEMBL document CHEMBL5724796, “Tm Shift (DSF) assay results for EUbOPEN Chemogenomics Library” (2024):

What was measured:
[1] = biological target: Fibroblast growth factor receptor 2 (Homo sapiens) (UniProt P21802); details: Compound concentration 20.0 uM
Description: Thermal Shift Assay. Domain: start/stop: T457-E768

Peregrin (Homo sapiens) = biological target: T1, Peregrin (Homo sapiens) (UniProt P55201); details: Compound concentration 20.0 uM
T1 sequence (whole entry): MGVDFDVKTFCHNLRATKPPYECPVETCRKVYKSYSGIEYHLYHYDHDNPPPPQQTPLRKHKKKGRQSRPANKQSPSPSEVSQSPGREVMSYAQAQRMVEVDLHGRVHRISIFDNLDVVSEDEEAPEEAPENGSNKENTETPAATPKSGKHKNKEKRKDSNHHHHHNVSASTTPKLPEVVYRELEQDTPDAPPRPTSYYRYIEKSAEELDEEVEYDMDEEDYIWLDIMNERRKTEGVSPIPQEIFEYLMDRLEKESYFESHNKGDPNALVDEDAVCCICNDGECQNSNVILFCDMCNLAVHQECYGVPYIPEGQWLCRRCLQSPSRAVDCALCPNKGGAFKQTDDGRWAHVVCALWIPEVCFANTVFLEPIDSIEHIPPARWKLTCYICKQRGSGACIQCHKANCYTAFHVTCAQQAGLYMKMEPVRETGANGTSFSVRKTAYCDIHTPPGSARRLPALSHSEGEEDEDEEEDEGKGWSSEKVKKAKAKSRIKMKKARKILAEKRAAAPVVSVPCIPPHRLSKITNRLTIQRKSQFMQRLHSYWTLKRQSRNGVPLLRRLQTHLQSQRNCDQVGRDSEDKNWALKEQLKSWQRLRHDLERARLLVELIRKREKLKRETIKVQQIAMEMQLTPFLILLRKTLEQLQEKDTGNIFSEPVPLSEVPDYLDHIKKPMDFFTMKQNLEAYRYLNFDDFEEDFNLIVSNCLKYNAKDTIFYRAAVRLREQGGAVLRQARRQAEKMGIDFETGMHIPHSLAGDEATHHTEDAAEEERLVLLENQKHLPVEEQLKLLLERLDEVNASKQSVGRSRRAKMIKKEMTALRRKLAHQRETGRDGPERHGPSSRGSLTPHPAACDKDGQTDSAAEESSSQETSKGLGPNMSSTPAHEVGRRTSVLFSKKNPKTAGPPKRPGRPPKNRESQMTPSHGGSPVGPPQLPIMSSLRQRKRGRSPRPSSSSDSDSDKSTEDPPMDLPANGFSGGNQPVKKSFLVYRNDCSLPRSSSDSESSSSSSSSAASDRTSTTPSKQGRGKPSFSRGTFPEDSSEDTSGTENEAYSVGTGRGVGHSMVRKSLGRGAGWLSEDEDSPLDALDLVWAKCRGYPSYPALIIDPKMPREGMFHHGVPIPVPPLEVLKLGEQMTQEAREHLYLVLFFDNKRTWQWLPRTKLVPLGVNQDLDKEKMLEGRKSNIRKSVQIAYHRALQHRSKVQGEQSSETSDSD

Sequence of Fibroblast growth factor receptor 2 (Homo sapiens) (P21802 22-821 limits assumed): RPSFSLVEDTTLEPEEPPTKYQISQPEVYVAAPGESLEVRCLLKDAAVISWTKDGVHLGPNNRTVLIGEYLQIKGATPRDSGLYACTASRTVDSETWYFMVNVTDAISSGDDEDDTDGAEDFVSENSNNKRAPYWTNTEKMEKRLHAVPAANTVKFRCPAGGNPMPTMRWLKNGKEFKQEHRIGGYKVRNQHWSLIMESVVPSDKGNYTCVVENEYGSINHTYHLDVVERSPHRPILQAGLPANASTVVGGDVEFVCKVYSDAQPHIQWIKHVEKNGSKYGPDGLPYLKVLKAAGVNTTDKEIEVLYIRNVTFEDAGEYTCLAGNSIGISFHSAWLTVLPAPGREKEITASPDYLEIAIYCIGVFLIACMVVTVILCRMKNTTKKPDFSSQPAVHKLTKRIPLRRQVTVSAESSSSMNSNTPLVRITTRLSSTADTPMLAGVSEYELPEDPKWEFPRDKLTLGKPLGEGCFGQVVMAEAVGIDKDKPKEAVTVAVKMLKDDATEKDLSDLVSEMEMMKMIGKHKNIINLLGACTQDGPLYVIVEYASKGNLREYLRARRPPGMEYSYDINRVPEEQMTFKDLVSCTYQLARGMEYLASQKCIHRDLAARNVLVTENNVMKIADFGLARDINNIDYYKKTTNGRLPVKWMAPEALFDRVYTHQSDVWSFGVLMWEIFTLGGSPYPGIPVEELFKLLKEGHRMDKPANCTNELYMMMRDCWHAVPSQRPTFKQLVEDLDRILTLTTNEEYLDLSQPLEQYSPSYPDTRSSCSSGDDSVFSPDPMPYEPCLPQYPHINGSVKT

SMILES | ΔTm [1] [°C] | ΔTm (Peregrin (Homo sapiens)) [°C]
O=C(c1ccc2[nH]ccc2c1)N1CCN(S(=O)(=O)c2ccc3[nH]c(=O)oc3c2)CC1 | 1.77 | -0.16
CS(=O)(=O)c1ccc(Oc2cc(F)cc(C#N)c2)c2c1[C@H](O)C(F)(F)C2 | -0.21 | 1.71
Cn1cc(NC(=O)c2cc(F)cc(F)c2)c(C(=O)NC2CCNCC2)n1 | 0.66 | -1.44
CC(C)C[C@@H](C=O)NC(=O)[C@@H](NS(=O)(=O)c1ccc(F)cc1)C(C)C | -0.07 | -1.65
CCCOc1ccc(NC(=O)CN2CCN(C)CC2)cc1-c1nc(CC)c(CC)c(=O)[nH]1 | -0.52 | 1.24
O=C(COc1ccc(-c2oc3cc(O)c(C(=O)O)cc3c2C#Cc2cccc(Cl)c2)cc1)NC1CC1 | 0.52 | -1.44
CCN(c1cc(-c2ccc(CN3CCOCC3)cc2)cc(C(=O)NCc2c(C)cc(C)[nH]c2=O)c1C)C1CCOCC1 | 0.66 | -1.14
COc1cc2c(NC3CCN(C)CC3)nc(N3CCCN(C)CC3)nc2cc1OCCCN(C)C | 0.15 | -1.21
C=CC(=O)Nc1cccc(-c2c[nH]cc2CN(C)CCN)c1 | 0.24 | -1.04
CC(=Cc1cc(C)ccc1C=C(C)C(=O)NC(=N)N)C(=O)N=C(N)N | -0.04 | -1.11

The remaining lines, values ahead:

ΔTm [1] [°C] | ΔTm (Peregrin (Homo sapiens)) [°C] | SMILES
0.6 | -2.69 | CC(C)N(CCCNC(=O)Nc1ccc(C(C)(C)C)cc1)C[C@H]1O[C@@H](n2ccc3c(N)ncnc32)[C@H](O)[C@@H]1O
-3.78 | -0.68 | CN1CCc2c(n(Cc3ccc(C(=O)NO)cc3)c3ccccc23)C1
0.48 | 0.57 | O=C(O)C1=CCCN(CCON=C(c2ccccc2)c2ccccc2)C1
0.2 | -1.02 | C[C@H](Nc1cc(Cl)nc2c1cnn2[C@@H]1O[C@H](COP(=O)(O)CP(=O)(O)O)[C@@H](O)[C@H]1O)c1ccccc1F
0.01 | 0.28 | CC(C)(C)NS(=O)(=O)c1cccc2c(NC(=O)[C@H](Cc3ccccc3)NC(=O)C3CCCCC3)cccc12
-3.99 | 0 | Cc1ncsc1-c1ccc(CNC(=O)[C@@H]2C[C@@H](O)CN2C(=O)[C@@H](NC(=O)COCCOCCOc2ccc(-c3ccc4ncnc(Nc5ccc(OCc6cccc(F)c6)c(Cl)c5)c4c3)cc2)C(C)(C)C)cc1
-0.47 | -1.14 | Cc1cnc(-c2ccccc2C(C)C)nc1NCc1ccc(-n2ccnn2)cc1
-0.14 | -0.86 | O=C(NO)c1ccc(CN(c2cnccn2)c2cnccn2)cc1
-1.02 | 1.04 | COc1cc2c(cc1-c1c(C)noc1C)[nH]c1nc(C)nc(-c3ccnc4ccccc34)c12
0.61 | -1.64 | Cc1ncsc1-c1ccc(CNC(=O)[C@@H]2C[C@@H](O)CN2C(=O)[C@@H](NC(=O)COCCOCCOCCNC(=O)C[C@@H]2N=C(c3ccc(Cl)cc3)c3c(sc(C)c3C)-n3c(C)nnc32)C(C)(C)C)cc1
